Reference: ChEMBL document CHEMBL5346926, “Optimization of triazolo[4,5-d]pyrimidines towards human CC chemokine receptor 7 (CCR7) antagonists” (Eur J Med Chem, 2023)
pIC50: −log10 of the molar value.

Key:
[1] = target: T1, C-C chemokine receptor type 7 (Homo sapiens, UniProt P32248); test: Antagonist activity at CCR7 in human CD4 cells by fluorescence based calcium mobilization assay; type: functional, cell-based, CD4+ve Th
T1 sequence (P32248 whole entry): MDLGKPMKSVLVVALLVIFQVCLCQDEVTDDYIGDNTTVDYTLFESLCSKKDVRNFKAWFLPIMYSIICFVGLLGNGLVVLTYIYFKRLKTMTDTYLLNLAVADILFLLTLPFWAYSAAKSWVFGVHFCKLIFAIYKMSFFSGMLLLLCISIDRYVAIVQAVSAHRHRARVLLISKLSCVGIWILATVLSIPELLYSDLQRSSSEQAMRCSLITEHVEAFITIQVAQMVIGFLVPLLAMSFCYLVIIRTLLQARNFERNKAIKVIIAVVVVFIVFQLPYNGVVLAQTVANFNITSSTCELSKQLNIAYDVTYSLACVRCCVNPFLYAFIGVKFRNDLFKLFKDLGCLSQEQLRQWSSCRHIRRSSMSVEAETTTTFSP

[2] = target: T2, C-X-C chemokine receptor type 2 (Homo sapiens, UniProt P25025); test: Antagonist activity at CXCR2 in human CD4 cells by fluorescence based calcium mobilization assay; type: functional, cell-based, CD4+ve Th
T2 sequence (P25025 whole entry): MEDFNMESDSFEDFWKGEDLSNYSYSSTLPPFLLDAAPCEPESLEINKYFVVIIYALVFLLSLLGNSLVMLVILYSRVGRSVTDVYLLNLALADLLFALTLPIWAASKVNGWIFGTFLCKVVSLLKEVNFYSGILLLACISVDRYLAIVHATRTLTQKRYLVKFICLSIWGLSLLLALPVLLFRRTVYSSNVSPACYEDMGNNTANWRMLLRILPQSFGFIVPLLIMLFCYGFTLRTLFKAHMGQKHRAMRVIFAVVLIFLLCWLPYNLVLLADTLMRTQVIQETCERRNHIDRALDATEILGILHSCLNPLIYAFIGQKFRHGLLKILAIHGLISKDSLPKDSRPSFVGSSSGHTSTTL

[3] = target: T1, C-C chemokine receptor type 7; test: Competitive binding affinity to CCR7 in human U87 cells preincubated for 15 mins followed by CCL19 AF647 addition measured after 30 mins by flow cytometric analysis; type: cell-based

| SMILES | pIC50 [1] | pIC50 [2] | pIC50 [3] |
| --- | --- | --- | --- |
| C[C@@H](CO)Nc1nc(SCc2cccc(F)c2F)nc2[nH]nnc12 | – | 5.76 | – |
| C[C@H](CO)Nc1nc(Sc2ccccc2)nc2[nH]nnc12 | < 4.52 | – | – |
| CC(C)(C)OC(=O)N1CCN(c2nc(SCc3cccc(F)c3F)nc3[nH]nnc23)CC1 | < 4.52 | 4.94 | – |
| Fc1cccc(CSc2nc(N3CCNCC3)c3nn[nH]c3n2)c1F | < 4.52 | < 4.52 | – |
| C[C@H](CO)Nc1nc(SCc2cccc(F)c2F)nc2sccc12 | < 4.52 | – | – |
| CCCNC(=O)CSc1nc(N[C@H](C)CO)c2nn[nH]c2n1 | – | < 4.52 | – |
| Fc1cccc(CSc2nc(NCC3CC3)c3nn[nH]c3n2)c1F | < 4.52 | 5.53 | – |
| C[C@H](CO)Nc1nc(SC2CCCCC2)nc2[nH]nnc12 | – | < 4.52 | – |
| C[C@H](CO)Nc1nc(SCc2cccc(F)c2F)nc2c1CNCC2 | < 4.52 | – | – |
| CN(C)c1nc(SCc2cccc(F)c2F)nc2[nH]nnc12 | < 4.52 | – | – |
| C[C@H](CO)Nc1nc(SCc2cccc(F)c2F)nc2nc(N)sc12 | < 4.52 | – | – |
| Cc1ccc([C@H](NC2=NS(=O)(=O)N=C2Nc2ccc(C)c(C(=O)N(C)C)c2O)C(C)(C)C)o1 | – | 5.19 | – |
| CN(C)CCNc1nc(SCc2cccc(F)c2F)nc2[nH]nnc12 | < 4.52 | < 4.52 | – |
| C[C@H](CO)Nc1nc(SCC2CCCC2)nc2[nH]nnc12 | – | 5.63 | – |
| C[C@H](CO)Nc1nc(SCc2cccc(F)c2F)nc2cccnc12 | < 4.52 | – | – |
| C[C@H](CO)Nc1nc(SCc2cccc(F)c2F)nc2ccsc12 | < 4.52 | – | – |

Next, values leading:

| pIC50 [1] | pIC50 [2] | pIC50 [3] | SMILES |
| --- | --- | --- | --- |
| 4.53 | – | – | CCCOCCSc1nc(N[C@H](C)CO)c2nn[nH]c2n1 |
| 5.77 | – | – | C[C@H](CO)Nc1nc(SCCC2CCCCC2)nc2[nH]nnc12 |
| < 4.52 | – | – | C[C@H](CO)Nc1nc(SCc2cccc(F)c2F)nc2cnccc12 |
| 4.62 | – | – | C[C@H](CO)Nc1nc(OCc2cccc(F)c2F)nc2[nH]nnc12 |
| 5.15 | 5.68 | – | C[C@H](CCO)Nc1nc(SCc2cccc(F)c2F)nc2[nH]nnc12 |
| < 4.52 | – | – | C[C@H](CO)Nc1nc(SCc2cccc(F)c2F)nc2cc[nH]c12 |
| 5.64 | – | – | CC(C)(CO)Nc1nc(SCc2cccc(F)c2F)nc2[nH]nnc12 |
| 5.24 | – | – | OCCSc1nc(SCc2cccc(F)c2F)nc2[nH]nnc12 |
| < 4.52 | – | – | C[C@H](CO)Nc1nc(SCc2cccc(F)c2F)nc2c1nnn2C |
| 5.28 | – | – | CC(C)CCCCSc1nc(N[C@H](C)CO)c2nn[nH]c2n1 |
| 4.73 | – | – | OCCCNc1nc(SCc2cccc(F)c2F)nc2[nH]nnc12 |
| 6.37 | – | 5.75 | CCCCCCSc1nc(N[C@H](C)CO)c2nn[nH]c2n1 |
| 5.93 | – | – | C[C@H](CO)Nc1nc(SCCc2ccccc2)nc2[nH]nnc12 |
| 4.76 | 5.06 | – | COCCNc1nc(SCc2cccc(F)c2F)nc2[nH]nnc12 |
| 5.07 | 5.59 | – | CCCC(C)CSc1nc(N[C@H](C)CO)c2nn[nH]c2n1 (stereo not given in full) |
| 5.06 | – | – | OCCNc1nc(SCc2cccc(F)c2F)nc2[nH]nnc12 |
